For one cell line, relative viability results are on record in the supplement of paper PMC10307832.

What all share (assay): relative viability (nuclei count vs DMSO), 5 days (fraction); higher = more cells survive
Compound in the test “Carboplatin + Olaparib”: C1CC(C1)(C(=O)O)C(=O)O.[NH2-].[NH2-].[Pt+2] [Carboplatin] + O=C(c1cc(Cc2n[nH]c(=O)c3ccccc23)ccc1F)N1CCN(C(=O)C2CC2)CC1 [Olaparib] (partner 8 µM)
The procedure, abridged: (§1)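 One day after seeding in 1536-well plates, lung cancer cell lines were dosed by pin tool. Dosing was either single-drug or a fixed anchor-drug dose plus five library-drug doses (not always all listed) in √10 steps. After 5 days, nuclei were stained in one fix-and-stain step and counted on 4× images, and relative viability is the nuclei count of treated wells over that of vehicle wells, given as the median of duplicate plates.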

Compound in the test “GSK126 + Palbociclib”: CC[C@H](C)N1C=C(C2=C(C=C(C=C21)C3=CN=C(C=C3)N4CCNCC4)C(=O)NCC5=C(C=C(NC5=O)C)C)C [GSK126] + CC(=O)c1c(C)c2cnc(Nc3ccc(N4CCNCC4)cn3)nc2n(C2CCCC2)c1=O [Palbociclib] (partner 0.5 µM)
A digest of the protocol: as §1

Compound in the test “GSK126 + Linsitinib”: CC[C@H](C)N1C=C(C2=C(C=C(C=C21)C3=CN=C(C=C3)N4CCNCC4)C(=O)NCC5=C(C=C(NC5=O)C)C)C [GSK126] + C[C@]1(O)C[C@@H](c2nc(-c3ccc4ccc(-c5ccccc5)nc4c3)c3c(N)nccn32)C1 [Linsitinib] (partner 1 µM)
A digest of the protocol:
as §1

Compound in the test “MLN4924 + Palbociclib”: NS(=O)(=O)OC[C@@H]1C[C@@H](n2ccc3c(N[C@H]4CCc5ccccc54)ncnc32)C[C@@H]1O [MLN4924] + CC(=O)c1c(C)c2cnc(Nc3ccc(N4CCNCC4)cn3)nc2n(C2CCCC2)c1=O [Palbociclib] (partner 0.5 µM)
A digest of the protocol:
as §1

UMC-11: the relative viability was 0.72 with Carboplatin + Olaparib (first compound 0.08 µM); 0.573 in the test with Carboplatin + Olaparib (first compound 0.253 µM); 0.433 with Carboplatin + Olaparib (first compound 0.8 µM); 0.381 with Carboplatin + Olaparib (first compound 2.53 µM); 0.345 with Carboplatin + Olaparib (first compound 8 µM); 0.353 in the test with GSK126 + Palbociclib (first compound 0.08 µM). Besides, the relative viability with GSK126 + Palbociclib (first compound 0.253 µM) was 0.32; in the test with GSK126 + Palbociclib (first compound 0.8 µM), 0.328; with GSK126 + Palbociclib (first compound 2.53 µM) it was 0.405; in the test with GSK126 + Palbociclib (first compound 8 µM), 0.344; in the test with GSK126 + Linsitinib (first compound 0.08 µM) it was 1.14; with GSK126 + Linsitinib (first compound 0.253 µM) it was 0.978. In addition, the relative viability with GSK126 + Linsitinib (first compound 0.8 µM) was 1.04; in the test with GSK126 + Linsitinib (first compound 2.53 µM), 1.02; with GSK126 + Linsitinib (first compound 8 µM), 1.15; in the test with MLN4924 + Palbociclib (first compound 0.04 µM), 0.335; with MLN4924 + Palbociclib (first compound 0.1265 µM), 0.336; with MLN4924 + Palbociclib (first compound 0.4 µM), 0.321. Further, the relative viability with MLN4924 + Palbociclib (first compound 1.265 µM) was 0.245; with MLN4924 + Palbociclib (first compound 4 µM), 0.249.
